Results on 17 compounds are retold here after patent publication US20260124214A1, “HETEROCYCLIC COMPOUNDS FOR USE IN THE TREATMENT OF CANCER” (ARTIOS PHARMA LIMITED, priority 2021, published 2026).

Counter-ions that a name gives are not always drawn.

The assay concerns the target T1, Human Polθ polymerase domain (aa1820-2590) (Homo sapiens, UniProt O75417).
T1 construct: Human Polθ polymerase domain (aa1820-2590) was expressed in E. Coli; made in house; host or cells: E. coli
T1 sequence (O75417 1820-2590): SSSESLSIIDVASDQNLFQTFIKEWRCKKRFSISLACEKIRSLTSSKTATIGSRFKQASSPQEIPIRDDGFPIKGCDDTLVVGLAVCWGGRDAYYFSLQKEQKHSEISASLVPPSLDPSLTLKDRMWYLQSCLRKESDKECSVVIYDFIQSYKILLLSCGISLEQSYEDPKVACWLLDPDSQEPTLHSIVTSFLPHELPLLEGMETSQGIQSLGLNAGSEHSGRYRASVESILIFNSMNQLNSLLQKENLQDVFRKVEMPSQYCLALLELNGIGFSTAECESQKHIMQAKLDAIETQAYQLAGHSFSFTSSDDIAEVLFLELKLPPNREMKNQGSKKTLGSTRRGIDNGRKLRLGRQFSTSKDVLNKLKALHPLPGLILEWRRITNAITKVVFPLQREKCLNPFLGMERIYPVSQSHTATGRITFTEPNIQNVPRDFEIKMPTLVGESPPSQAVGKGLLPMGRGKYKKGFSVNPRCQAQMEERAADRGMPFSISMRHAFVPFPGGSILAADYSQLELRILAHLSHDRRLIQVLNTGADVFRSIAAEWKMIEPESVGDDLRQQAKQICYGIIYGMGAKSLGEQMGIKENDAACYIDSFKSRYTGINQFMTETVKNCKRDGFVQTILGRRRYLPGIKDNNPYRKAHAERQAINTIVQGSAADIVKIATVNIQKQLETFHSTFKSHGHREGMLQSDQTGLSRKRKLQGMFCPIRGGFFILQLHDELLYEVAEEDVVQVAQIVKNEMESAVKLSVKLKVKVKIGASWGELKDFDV
Kind of assay: Polθ Polymerase Domain WT KI Assay (PicoGreen). In kind it is biochemical. The settings on record: 100 nM DNA substrate, 0.156 nM Polθ, initial rates vs inhibitor concentration. A digest of the protocol: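 E. coli-expressed human Polθ polymerase domain (aa1820-2590) on annealed DNA II Short/Long primer-template (1.2:1), in 25 mM Tris pH 7.5, NaCl, 5% glycerol, 0.01% Triton X-100, 0.1 mg/ml BSA, 1 mM DTT, 1% DMSO. EDTA-quenched timepoints to 180 min, PicoGreen fluorescence. Initial rates vs inhibitor concentration fitted four-parameter for KI.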
As a reminder, the Ki is the equilibrium dissociation constant of an inhibitor or competing ligand from its target. A higher Ki goes with a looser hold on the target. `Cc1cc(C(F)(F)F)cc(N2C(=O)C[C@@H]3CN(Cc4cn5c(n4)CNCC5)c4c(C)cccc4N(C)C(=O)[C@H]32)n1` [Example 80, (3aR,11aS)-6,10-Dimethyl-1-(6-methyl-4-(trifluoromethyl)pyridin-2-yl)-5-((5,6,7,8-tetrahydroimidazo[1,2-a]pyrazin-2-yl)methyl)-1,3a,4,5,10,11a-hexahydro-2H-benzo[b]pyrrolo[2,3-f][1,4]diazocine-2,11(3H)-dione] had a Ki of 0.186 nM. The same measure for `Cc1cc(C(F)(F)F)cc(N2C(=O)C[C@@H]3CN(Cc4nc5n(c4F)CCN(C)C5)c4c(Cl)cccc4N(C)C(=O)[C@H]32)n1` [Example 81, (3aR,11aS)-6-Chloro-5-((3-fluoro-7-methyl-5,6,7,8-tetrahydroimidazo[1,2-a]pyrazin-2-yl)methyl)-10-methyl-1-(6-methyl-4-(trifluoromethyl)pyridin-2-yl)-1,3a,4,5,10,11a-hexahydro-2H-benzo[b]pyrrolo[2,3-f][1,4]diazocine-2,11(3H)-dione hydrochloride]: 1 nM; for `Cc1cc(C(F)(F)F)cc(N2C(=O)C[C@@H]3CN(Cc4nc5n(c4C)CCN(C)C5)c4c(C)cccc4N(C)C(=O)[C@H]32)n1` [Example 82, (3aR,11aS)-5-((3,7-Dimethyl-5,6,7,8-tetrahydroimidazo[1,2-a]pyrazin-2-yl)methyl)-6,10-dimethyl-1-(6-methyl-4-(trifluoromethyl)pyridin-2-yl)-1,3a,4,5,10,11a-hexahydro-2H-benzo[b]pyrrolo[2,3-f][1,4]diazocine-2,11(3H)-dione]: 0.431 nM; for `Cc1cc(C(F)(F)F)cc(N2C(=O)C[C@@H]3CN(Cc4nc5n(c4F)CCN(C)C5)c4c(C)cccc4N(C)C(=O)[C@H]32)n1` [Example 83, (3aR,11aS)-5-((3-Fluoro-7-methyl-5,6,7,8-tetrahydroimidazo[1,2-a]pyrazin-2-yl)methyl)-6,10-dimethyl-1-(6-methyl-4-(trifluoromethyl)pyridin-2-yl)-1,3a,4,5,10,11a-hexahydro-2H-benzo[b]pyrrolo[2,3-f][1,4]diazocine-2,11(3H)-dione]: 0.254 nM. The same measure for `Cc1cc(C(F)(F)F)cc(N2C(=O)C[C@@H]3CN(CC4CCN(C)CC4)c4c(Cl)cccc4N(C)C(=O)[C@H]32)n1` [Example 84, (3aR,11aS)-6-Chloro-10-methyl-1-(6-methyl-4-(trifluoromethyl)pyridin-2-yl)-5-((1-methylpiperidin-4-yl)methyl)-1,3a,4,5,10,11a-hexahydro-2H-benzo[b]pyrrolo[2,3-f][1,4]diazocine-2,11(3H)-dione]: 2.54 nM; for `Cc1cc(C(F)(F)F)cc(N2C(=O)C[C@@H]3CN(CC4CCN(C5COC5)CC4)c4c(Cl)cccc4N(C)C(=O)[C@H]32)n1` [Example 85, (3aR,11aS)-6-Chloro-10-methyl-1-(6-methyl-4-(trifluoromethyl)pyridin-2-yl)-5-((1-(oxetan-3-yl)piperidin-4-yl)methyl)-1,3a,4,5,10,11a-hexahydro-2H-benzo[b]pyrrolo[2,3-f][1,4]diazocine-2,11(3H)-dione]: 0.622 nM; for `Cc1cc(C(F)(F)F)cc(N2C(=O)C[C@@H]3CN(CC4CCN(CCF)CC4)c4c(Cl)cccc4N(C)C(=O)[C@H]32)n1` [Example 86, (3aR,11aS)-6-Chloro-5-((1-(2-fluoroethyl)piperidin-4-yl)methyl)-10-methyl-1-(6-methyl-4-(trifluoromethyl)pyridin-2-yl)-1,3a,4,5,10,11a-hexahydro-2H-benzo[b]pyrrolo[2,3-f][1,4]diazocine-2,11(3H)-dione]: 1.3 nM. The same measure for `COCCN1CCC(CN2C[C@H]3CC(=O)N(c4cc(C(F)(F)F)cc(C)n4)[C@@H]3C(=O)N(C)c3cccc(Cl)c32)CC1` [Example 87, (3aR,11aS)-6-Chloro-5-((1-(2-methoxyethyl)piperidin-4-yl)methyl)-10-methyl-1-(6-methyl-4-(trifluoromethyl)pyridin-2-yl)-1,3a,4,5,10,11a-hexahydro-2H-benzo[b]pyrrolo[2,3-f][1,4]diazocine-2,11(3H)-dione]: 1.48 nM; for `Cc1cc(C(F)(F)F)cc(N2C(=O)C[C@@H]3CN(CC4CCN(CCO)CC4)c4c(C)cccc4N(C)C(=O)[C@H]32)n1` [Example 88, (3aR,11aS)-5-((1-(2-Hydroxyethyl)piperidin-4-yl)methyl)-6,10-dimethyl-1-(6-methyl-4-(trifluoromethyl)pyridin-2-yl)-1,3a,4,5,10,11a-hexahydro-2H-benzo[b]pyrrolo[2,3-f][1,4]diazocine-2,11(3H)-dione]: 1.3 nM. In turn, `Cc1cc(C(F)(F)F)cc(N2C(=O)C[C@@H]3CN(CCOCCN(C)C)c4c(Cl)cccc4N(C)C(=O)[C@H]32)n1` [Example 89, (3aR,11aS)-6-Chloro-5-(2-(2-(dimethylamino)ethoxy)ethyl)-10-methyl-1-(6-methyl-4-(trifluoromethyl)pyridin-2-yl)-1,3a,4,5,10,11a-hexahydro-2H-benzo[b]pyrrolo[2,3-f][1,4]diazocine-2,11(3H)-dione hydrochloride] showed a Ki of 1.85 nM. Turning to `Cc1cc(C(F)(F)F)cc(N2C(=O)C[C@@H]3CN(CCOCCN(C)C)c4c(C)cccc4N(C)C(=O)[C@H]32)n1` [Example 90, (3aR,11aS)-5-(2-(2-(Dimethylamino)ethoxy)ethyl)-6,10-dimethyl-1-(6-methyl-4-(trifluoromethyl)pyridin-2-yl)-1,3a,4,5,10,11a-hexahydro-2H-benzo[b]pyrrolo[2,3-f][1,4]diazocine-2,11(3H)-dione], affinity was put at a Ki of 0.991 nM.

`Cc1cc(C(F)(F)F)cc(N2C(=O)C[C@@H]3CN(CC(=O)N4CCN(C)CC4)c4c(C)cccc4N(C)C(=O)[C@H]32)n1` [Example 93, (3aR,11aS)-6,10-Dimethyl-1-(6-methyl-4-(trifluoromethyl)pyridin-2-yl)-5-(2-(4-methylpiperazin-1-yl)-2-oxoethyl)-1,3a,4,5,10,11a-hexahydro-2H-benzo[b]pyrrolo[2,3-f][1,4]diazocine-2,11(3H)-dione] came in with a Ki of 1.19 nM.

For the compound `Cc1cc(C(F)(F)F)cc(N2C(=O)C[C@@H]3CN(Cc4ccncc4)c4c(Cl)cccc4N(C)C(=O)[C@H]32)n1` [Example 94, (3aR,11aS)-6-Chloro-10-methyl-1-(6-methyl-4-(trifluoromethyl)pyridin-2-yl)-5-(pyridin-4-ylmethyl)-1,3a,4,5,10,11a-hexahydro-2H-benzo[b]pyrrolo[2,3-f][1,4]diazocine-2,11(3H)-dione], affinity was put at a Ki of 3.29 nM. Against the preceding compound, the Ki is about 2.8-fold higher.

In turn, `Cc1cc(C(F)(F)F)cc(N2C(=O)C[C@@H]3CN(Cc4cccnc4)c4c(Cl)cccc4N(C)C(=O)[C@H]32)n1` [Example 95, (3aR,11aS)-6-Chloro-10-methyl-1-(6-methyl-4-(trifluoromethyl)pyridin-2-yl)-5-(pyridin-3-ylmethyl)-1,3a,4,5,10,11a-hexahydro-2H-benzo[b]pyrrolo[2,3-f][1,4]diazocine-2,11(3H)-dione] had a Ki of 3.7 nM. This Ki and that of the compound before are within 1.5-fold of each other. Compound `Cc1cc(C(F)(F)F)cc(N2C(=O)C[C@@H]3CN(CC4CCCNC4)c4c(F)cccc4N(C)C(=O)[C@H]32)n1` (stereo partly drawn) [Example 97, (3aR,11aS)-6-Fluoro-10-methyl-1-(6-methyl-4-(trifluoromethyl)pyridin-2-yl)-5-(piperidin-3-ylmethyl)-1,3a,4,5,10,11a-hexahydro-2H-benzo[b]pyrrolo[2,3-f][1,4]diazocine-2,11(3H)-dione hydrochloride] came in with a Ki of 8.7 nM. The same measure for `Cc1cc(C(F)(F)F)cc(N2C(=O)C[C@@H]3CN(Cc4nc5n(n4)CCNC5)c4c(F)cccc4N(C)C(=O)[C@H]32)n1` [Example 98, (3aR,11aS)-6-Fluoro-10-methyl-1-(6-methyl-4-(trifluoromethyl)pyridin-2-yl)-5-((5,6,7,8-tetrahydro-[1,2,4]triazolo[1,5-a]pyrazin-2-yl)methyl)-1,3a,4,5,10,11a-hexahydro-2H-benzo[b]pyrrolo[2,3-f][1,4]diazocine-2,11(3H)-dione]: 4.91 nM; for `Cc1cc(C(F)(F)F)cc(N2C(=O)C[C@@H]3CN(C[C@@H]4CCNC4)c4c(Cl)cccc4N(C)C(=O)[C@H]32)n1` [Example 99, (3aR,11aS)-6-Chloro-10-methyl-1-(6-methyl-4-(trifluoromethyl)pyridin-2-yl)-5-(((R)-pyrrolidin-3-yl)methyl)-1,3a,4,5,10,11a-hexahydro-2H-benzo[b]pyrrolo[2,3-f][1,4]diazocine-2,11(3H)-dione hydrochloride]: 3.05 nM.
